Results reported in publication PMC4580987, “Catalytic site inhibition of insulin-degrading enzyme by a small molecule induces glucose intolerance in mice” (Nature Communications, 2015).
“Also recorded” adds a separate entry of the source.

Columns and labels:
[1] = system: human SY5Y neuroblastoma cells; assay: Aβ1–40 secretion by differentiated SH-SY5Y cells (ELISA); format: cell-based; details: 10 μM and 30 μM, 48 h
Protocol: The human neuroblastoma cell lines SH-SY5Y were provided from ATCC (cat. no. crl2266) with a Certificate of Analysis and not checked in the lab for mycoplasma contamination. […] SH-SY5Y were seeded in a 96-well plate at 200,000 cells per cm^2. […] Differentiated cells were then incubated with compounds at 10 μM and 30 μM in presence of 0.1% DMSO.

human NEP = target: T1, human NEP (Homo sapiens, UniProt P08473); assay: Neutral endopeptidase (NEP) selectivity assay; format: biochemical; details: means of two experiments minimum, s.d.±10%; read-out: Selectivity IC50 hNEP
T1 construct: purchased R&D Systems
T1 sequence (P08473 whole entry): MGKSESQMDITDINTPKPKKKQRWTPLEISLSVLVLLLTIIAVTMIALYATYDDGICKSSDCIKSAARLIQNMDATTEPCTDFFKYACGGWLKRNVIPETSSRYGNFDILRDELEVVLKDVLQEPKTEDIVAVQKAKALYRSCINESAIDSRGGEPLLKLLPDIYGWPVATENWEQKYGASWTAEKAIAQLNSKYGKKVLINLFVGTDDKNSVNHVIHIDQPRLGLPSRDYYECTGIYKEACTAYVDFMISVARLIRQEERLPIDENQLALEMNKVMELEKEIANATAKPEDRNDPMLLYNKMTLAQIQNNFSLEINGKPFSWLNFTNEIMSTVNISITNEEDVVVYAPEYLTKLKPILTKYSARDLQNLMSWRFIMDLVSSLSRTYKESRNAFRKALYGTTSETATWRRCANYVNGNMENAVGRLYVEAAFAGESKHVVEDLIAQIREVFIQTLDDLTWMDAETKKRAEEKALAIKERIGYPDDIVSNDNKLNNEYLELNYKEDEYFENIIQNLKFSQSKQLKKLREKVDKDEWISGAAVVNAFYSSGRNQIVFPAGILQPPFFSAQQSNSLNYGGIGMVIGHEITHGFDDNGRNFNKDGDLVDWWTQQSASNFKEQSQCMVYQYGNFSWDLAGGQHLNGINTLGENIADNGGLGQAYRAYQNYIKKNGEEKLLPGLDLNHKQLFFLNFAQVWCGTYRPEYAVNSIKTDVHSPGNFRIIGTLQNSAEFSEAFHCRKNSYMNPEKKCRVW
Protocol: (§1) Briefly, human NEP (R&D Systems; 200 ng ml^−1) was incubated 10 min at room temperature with compound in Hepes 50 mM, NaCl 100 mM, pH 7.4 and the enzymatic reaction started by adding the substrate (final concentration 200 μM). […] Briefly, human ACE (R&D Systems) was incubated 10 min at room temperature with compound in Tris 50 mM 1% NaCl pH 7.4 and the enzymatic reaction is started by adding the substrate (final concentration 300 μM). […] In vitro activity was assayed at CEREP.SA as follows.

isolated mouse islets = details: 3 or 10 µM
Protocol: Digestion was stopped by addition of cold HBSS with 10% FCS. The islets were washed twice in HBSS with FCS and once in RPMI with FCS. […] The next day, the islets were incubated in fresh DMEM with 10% FCS without glucose for 90 min. Then glucose at 2.8 mM together with BDM44378 was added; after 1 h, the supernatant was removed and replaced by fresh medium with 28 mM glucose, followed by another 1-h incubation in the presence or absence of inhibitor.

human ACE = target: T2, human ACE (Homo sapiens, UniProt P12821); assay: ACE selectivity assay; format: biochemical; details: >10 μM stands for <10% at 10 μM; read-out: Selectivity IC50 hACE
T2 construct: purchased R&D Systems
T2 sequence (P12821 30-1306): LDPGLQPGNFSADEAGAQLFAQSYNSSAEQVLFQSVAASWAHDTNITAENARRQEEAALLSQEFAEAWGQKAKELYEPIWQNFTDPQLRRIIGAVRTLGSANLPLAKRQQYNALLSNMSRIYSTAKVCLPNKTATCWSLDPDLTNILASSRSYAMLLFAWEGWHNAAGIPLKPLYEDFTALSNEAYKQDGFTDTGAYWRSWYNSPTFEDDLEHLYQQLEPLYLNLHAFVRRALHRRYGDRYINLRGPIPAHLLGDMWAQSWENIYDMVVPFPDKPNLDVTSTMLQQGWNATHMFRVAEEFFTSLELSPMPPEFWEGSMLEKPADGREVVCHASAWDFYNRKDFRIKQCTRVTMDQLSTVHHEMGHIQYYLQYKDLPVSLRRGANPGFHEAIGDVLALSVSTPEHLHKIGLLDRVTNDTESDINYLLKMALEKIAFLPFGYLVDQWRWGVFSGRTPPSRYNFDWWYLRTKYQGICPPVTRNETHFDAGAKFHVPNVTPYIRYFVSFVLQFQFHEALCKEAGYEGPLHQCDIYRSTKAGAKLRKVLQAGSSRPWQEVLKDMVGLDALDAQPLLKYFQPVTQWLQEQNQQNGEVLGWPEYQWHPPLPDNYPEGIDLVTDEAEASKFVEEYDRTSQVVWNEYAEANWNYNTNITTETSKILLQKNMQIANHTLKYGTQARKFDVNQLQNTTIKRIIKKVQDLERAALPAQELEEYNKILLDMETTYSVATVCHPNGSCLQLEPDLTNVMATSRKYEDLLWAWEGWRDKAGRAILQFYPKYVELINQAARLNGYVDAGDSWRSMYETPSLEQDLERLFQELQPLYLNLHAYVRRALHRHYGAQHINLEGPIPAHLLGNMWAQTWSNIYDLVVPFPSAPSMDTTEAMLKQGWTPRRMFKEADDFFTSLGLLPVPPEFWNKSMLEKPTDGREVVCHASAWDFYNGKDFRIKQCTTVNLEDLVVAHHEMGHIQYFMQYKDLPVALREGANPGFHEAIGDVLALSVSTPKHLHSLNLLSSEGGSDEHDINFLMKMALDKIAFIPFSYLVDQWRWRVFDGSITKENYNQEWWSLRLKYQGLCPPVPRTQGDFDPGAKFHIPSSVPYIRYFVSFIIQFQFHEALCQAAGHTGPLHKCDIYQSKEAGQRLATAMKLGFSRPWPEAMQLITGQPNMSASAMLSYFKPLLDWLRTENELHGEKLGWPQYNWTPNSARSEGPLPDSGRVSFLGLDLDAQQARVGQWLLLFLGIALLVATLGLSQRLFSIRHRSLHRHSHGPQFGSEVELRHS
Protocol: as §1

O=C(C[C@@H](Cc1ccc2ccccc2c1)n1cc(CNC(=O)c2ccc(F)cc2)nn1)NO [Compound 1]
Aβ1–40 in culture supernatants [1]: significant elevations; also recorded: significantly increased; also recorded: dose-dependent increase | IC50 (human NEP): 2.6 µM | insulin in the supernatant of islets, Ide−/− (isolated mouse islets; islets from Ide−/− mice): did not respond | insulin detectable in the supernatant of islets, wild-type (isolated mouse islets; islets from wild-type C57BL/6J mice, 2.8 and 28 mM glucose): increased, in a dose-dependent manner | IC50 (human ACE): > 10 µM
